# Data reported in patent US20100247617A1, “Transdermal Administration Of (2S)-(4E)-N-Methyl-5-(3-(5-Isopropoxypyridin)yl)-4-Penten-2-Amine” (TARGACEPT, INC., priority 2007, published 2010).
# How the values were obtained:
# [1] = In vitro skin penetration study using pig-ear (Bronaugh diffusion cells); assay type: in vitro ADME; conditions: receiver PBS pH 7.4, 32° C.; for Cumulative penetrated amount: 24-hour period, pig-ear skin; for Steady state flux: pig-ear skin approx. 900 μm, average ± SD
# Protocol: Bronaugh diffusion cells were used for in vitro penetration studies, which were carried out to determine the flux (i.e. the speed by which the compound penetrates skin) and total cumulated amount penetrated of ^14C-active ingredient. The compound was dissolved in water at two concentrations, 35 and 135 mg/g. Pig-ear full-thickness skin (dermatomed to approx. 900 μm thick) was used as the membrane. The receiver compartment contained phosphate buffered saline (pH 7.4) and the temperature was maintained at 32° C. The compound solutions were applied onto the stratum corneum. Receiver compartment samples (2, 4, 8 12 and 14 h) were assayed by liquid scintillation counting. The transdermal flux (μg/cm^2/h) can be determined from the steady-state slope of the plot of the cumulative amount of active ingredient permeating through the skin versus time. After steady-state was established, the linear portion of the plot was used to calculate the flux from the slope.
# The cumulative penetrated amounts and derived steady state fluxes for both tested concentrations during a 24-hour period are presented in FIG. 1 and TABLE 1.
# [2] = Maximal solubility in water; assay type: physicochemical
# [3] = test concentration 35 mg/g water
# [4] = test concentration 135 mg/g water
structure (smiles),measurement,setting,value
"CN[C@@H](C)C/C=C/c1cncc(OC(C)C)c1 [active ingredient, (2S)-(4E)-N-methyl-5-(3-(5-isopropoxypyridin)yl)-4-penten-2-amine]",Cumulative penetrated amount,[1]; [3],27 ± 36 μg/cm^2
same,Steady state flux,[1]; [3],2.6 ± 3.6 μg/cm^2/h
same,Cumulative penetrated amount,[1]; [4],55 ± 88 μg/cm^2
same,Steady state flux,[1]; [4],5.1 ± 9.0 μg/cm^2/h
same,maximal solubility in water,[2],200 mg/g
